Laboratory results: patent US20230190694A1, “COMPOSITIONS FOR AND METHODS OF PRECISION CANCER TREATMENT” (priority 2021, published 2023)

What was measured:
[1] = Solubility in water; assay type: physicochemical
[2] = system: mutated and amplified genes (ctDNA) in blood; experiment: Molecular response by repeated Guardant 360 tests (ctDNA in blood); assay type: in vivo, human; details: individual patients; genes named in the cited cell or block
Protocol: Molecular response was determined by repeated Guardant 360 tests. […] Herein, blood samples were collected from patients and provided to Guardant for panel testing wherein a “panel” was defined as five or more ctDNA genes or gene mutation variants tested on the same day on the same member by the same rendering provider (i.e., Guardant).

[3] = system: Uncommon Cancers (Neoplastic Disorders); experiment: Patients with uncommon cancers treated with AS2-1 in combination with other drugs: response and survival; assay type: in vivo, human; details: GIST patient, before the combination of AS and sunitinib
Protocol: Patients diagnosed with 34 types of terminal cancer were treated with Antineoplaston AS2-1 (AS) therapy to reduce and/or abolish tumors and other signs of cancer and reduce and/or abolish expression of cancer-causing genes. In brief, patients admitted for treatment herein were diagnosed with terminal, Stage IV, cancers of varying types with multiple metastases and had failed standard-of-care regimens, except for a small number of patients who were treatment naive, but were not candidates for standard treatment because of very advanced disease and less than 6 months life expectancy. The estimated survival for these patients was from less than one to less than 6 months. The patients had radiological evidence of advanced metastatic cancer performed within 4 weeks from treatment start and genomic analysis, usually ordered at admission, including Guardant 360 blood test and/or Foundation One and/or Tempus blood or tissue test and/or SEMA4 tissue test. […]
At baseline, history taking, physical examination, necessary laboratory, genomic and radiological evaluations were performed. Two largest perpendicular diameters of the radiologically significant lesions were measured including MRI contrast-enhanced lesions in the brain and spinal cord. […] Mixed response was determined when there was a CR or PR of some lesions and PD of the other lesions. […]

Q: Which solubility in water [1] does the source give for `NC(=O)C(CCC(=O)[O-])NC(=O)Cc1ccccc1.[Na+]` (stereo not shown) [Iso-PG, phenylacetylisoglutaminate sodium] here?
A: The solubility in water was “soluble in water”.

Q: For `CCc1cc2c(cc1N1CCC(N3CCOCC3)CC1)C(C)(C)c1[nH]c3cc(C#N)ccc3c1C2=O` [alectinib], which “Genes affected by AS / molecular response: status of mutated or amplified genes in follow-up blood genomic analysis” value [2] is on record?
A: Its value is “Elimination of the ALK fusion”.

Q: For `Cc1ccc(NC(=O)c2ccc(CN3CCN(C)CC3)cc2)cc1Nc1nccc(-c2cccnc2)n1` [imatinib], which “response to prior targeted therapy” value [3] is on record?
A: Its value is “failed to respond”.

Q: Which “Genes affected by AS / molecular response: status of mutated or amplified genes in follow-up blood genomic analysis” value [2] does the source give for `C=CC(=O)Nc1cc(Nc2nccc(-c3cn(C)c4ccccc34)n2)c(OC)cc1N(C)CCN(C)C` [osimertinib] here?
A: Its value is “elimination of the two EGFR mutations”.
